{
  "source": "patent US5407927A",
  "about": "“Treatment of mild depression and restoration of IGF-I levels in aging by dehydroepiandrosterone” (The Regents of the University of California, priority 1993, dated 1995)",
  "assay_type_in_all_cases": "in vivo, human",
  "key": {"[1]": {"assay": "Serum DHEA and DHEAS levels during oral DHEA (immunoassay)", "description": "FIG. 1: DHEAS and DHEA serum levels in men and women at baseline, 2 and 12 weeks of DHEA (50 mg) administration and 2 weeks after discontinuation. The horizontal solid line represents mean level during the second decade of life.\n(§1) Seventeen women and 13 men ages 40-70 in good medical health were enrolled in a clinical trial of DHEA replacement of 6 months duration. The trial was structured as a double-blind randomized placebo-controlled crossover study. […] These subjects were seen monthly and received 50 mg DHEA orally, nightly for 3 months and placebo for 3 months.\n(§2) Blood specimens were drawn from all subjects in the study at baseline (time 0) and at 2 weeks and 12 weeks after DHEA administration, and at 2 weeks after DHEA administration was discontinued. DHEA, DHEAS, androstenedione, testosterone, dihydrotestosterone, and the sex hormone binding globulin were all measured by immunoassay as described by Anderson, D.C., et al. Steroid, 1976, 28:179.\n(§3) Serum levels of testosterone, androstenedione, and dihydrotestosterone, as well as the sex-hormone binding globulin are shown in FIG. 2."}, "[2]": {"tested_on": "sex-hormone binding globulin", "assay": "Serum sex-hormone binding globulin during oral DHEA (immunoassay)", "conditions": "50 mg DHEA orally, nightly", "description": "(§4) FIG. 2: Hormonal levels during DHEA (50 mg) therapy (represented by stippled area) in men and women. ADIONE (androstenedione); TEST (testosterone); DHT(dihydrotestosterone); SHBG(sex-hormone binding globulin). The shaded area represents the duration of DHEA treatment.\nas §1, §2, §3"}, "[3]": {"assay": "Body composition (% body fat by bioelectric impedance, BMI)", "conditions": "DHEA 50 mg orally, nightly, 3 months, mean ± standard error", "description": "The term \"BMI\" means body mass index which is body weight (kg)/height (m^2).\nas §1\n(§5) Insulin sensitivity and glucose effectiveness were measured by euglycemic hyperinsulinemic clamp (Bergman, R.N. J. Clin. Invest., 1987, 79:790-800) and rapid intravenous glucose tolerance test (Bergman, R.N., et al. Amer. J. Physiol., 1979, 236:667-677) and % body fat as measured by bioelectric impedance (Lukaski, H. Amer. J. Nutrition, 1987, 46:537) were measured on all patients after DHEA of placebo treatment. The glucose disposal rate was also measured using Bergman, 1987 (supra)."}, "[4]": {"assay": "Side effects and safety parameters (physical exams, hematology, chemistry) in clinical trial", "conditions": "17 women and 13 men ages 40-70; 50 mg orally, nightly, 3 months", "description": "as §1"}, "[5]": {"assay": "Serum apolipoproteins (immunoassay)", "conditions": "DHEA (50 mg) × 3 months, mean ± standard error", "description": "as §1\n(§6) Serum cholesterol, triglycerides, apolipoproteins A1 and B, and the HDL and LDL lipoproteins were measured on all serum specimens. Cholesterol, triglycerides, HDL and LDL were measured by standard enzymatic methods. (Allain, C.A., et al., Clin. Chem. 1974, 20:470.) Apolipoproteins were measured by immunoassay methods. Immunoassay methods for measurement of apolipoproteins are described in the literature. […] All other lipid or lipoprotein levels were unchanged by the DHEA administration."}, "[6]": {"assay": "Self-reported libido (visual analog scale)", "conditions": "end of 3 month DHEA period", "description": "as §1\n(§7) Libido was self-reported by the patients and scored on a visual analog scale. Subjects were evaluated at the end at the 3 month period of DHEA or placebo treatment."}, "[7]": {"assay": "Glucose metabolism (euglycemic hyperinsulinemic clamp, rapid intravenous glucose tolerance test)", "conditions": "DHEA 50 mg orally, nightly, 3 months, mean ± standard error", "description": "as §1, §5"}, "[8]": {"tested_on": "insulin-like growth factor I (IGF-I)", "assay": "Serum insulin-like growth factor I (immunoassay)", "conditions": "DHEA 50 mg, 3 months", "description": "(§8) Blood specimens are drawn from patients immediately prior to the onset of DHEA administration and preferentially at 30 days after the beginning of treatment and at periodic intervals thereafter determined by the treating physician. Serum IGF-I and IGF BP-I levels are determined by immunoassay on these blood specimens. There are a variety of immunoassay methods available for determination of IGF-I and IGF BP-I which are reported in the literature and which are known to those of skill in the art. (Breier, B.H., et al., J. of Endocrinol., 1991, 128:347-357 and Pekonen, F. et al. J. Immunoassay, 1989, 10:325-337.\nas §1\n(§9) Insulin-like growth factor I and insulin-like growth factor binding protein I were measured in serum specimens by immunoassay as described previously."}, "[9]": {"tested_on": "testosterone, androstenedione, and dihydrotestosterone", "assay": "Serum androgen levels during oral DHEA (immunoassay)", "conditions": "50 mg DHEA orally, nightly", "description": "as §4, §1, §2, §3"}, "[10]": {"assay": "Serum cholesterol, triglycerides, HDL and LDL (standard enzymatic methods)", "conditions": "for CHOLESTEROL / HDL / LDL / TG: DHEA (50 mg) × 3 months, mean ± standard error", "description": "as §1, §6"}, "[11]": {"assay": "Pharmacokinetic study comparing oral and sublingual administration of DHEA", "conditions": "for Tmax: human, serum, read-out: time to peak levels of DHEA", "description": "FIG. 5: Hormonal levels in men and women after oral 50 mg DHEA (.cndot. and sublingual 50 mg. DHEA (.smallcircle. ).\nA pharmacokinetic study comparing oral and sublingual administration of DHEA was performed on the men and women subjects. DHEA, DHEAS, androstenedione, testosterone and dihydrotestosterone were measured by the immunoassay methods described above on serum specimens drawn at 30 minutes, 1 hour, 2 hours, 4 hours, 5 hours and 8 hours after dose administration. […] Peak levels of DHEA were achieved within 30 minutes with the sublingual route and 3 hours with the oral route."}, "[12]": {"assay": "Sense of well-being or mood-elevating effect (question to subjects)", "conditions": "DHEA 50 mg, 3 months", "description": "as §1\nSense of well-being or mood-elevating effect was reported in response to a question: \"Have you noted any effect, good or bad during this treatment?\nas §7"}, "[13]": {"tested_on": "insulin-like growth factor binding protein I (IGF BP-I)", "assay": "Serum insulin-like growth factor binding protein I (immunoassay)", "conditions": "DHEA 50 mg, 3 months", "description": "as §8, §1, §9"}},
  "note": "Read-outs that look alike come from different tables or passages of the source.",
  "data": [
    {"compound": "C[C@]12CC[C@H](O)CC1=CC[C@@H]1[C@@H]2CC[C@]2(C)C(=O)CC[C@@H]12", "note": "[DHEA, dehydroepiandrosterone]", "values": [
      {"measurement": "blood levels of DHEA", "setting": "[1]; adults 40-80 years old, 50 to 100 mg orally or sublingually daily, FIG. 1", "value": "in the physiological range for younger adults"},
      {"measurement": "DHEAS serum levels (maintenance)", "setting": "[1]; men and women, 50 mg DHEA orally, nightly, three month trial", "value": "maintained throughout the three month trial"},
      {"measurement": "DHEAS serum levels (rise)", "setting": "[1]; men and women, 50 mg DHEA orally, nightly, within 2 weeks of administration", "value": "rose to those levels seen in the second decade of life within 2 weeks of administration"},
      {"measurement": "time for DHEAS levels to return to baseline after discontinuing DHEA", "setting": "[1]; men and women, after discontinuing 50 mg DHEA", "value": "≤ 2", "unit": "weeks"},
      {"measurement": "Sex-hormone binding globulin level", "setting": "[2]", "value": "a trend of decline but this decline was not statistically significant"},
      {"measurement": "% FAT", "setting": "[3]; men", "value": "21.9 ± 1.3", "unit": "%"},
      {"measurement": "BMI", "setting": "[3]; men", "value": "27.0 ± 0.7", "unit": "kg/m^2"},
      {"measurement": "% FAT", "setting": "[3]; women", "value": "31.3 ± 1.0", "unit": "%"},
      {"measurement": "BMI", "setting": "[3]; women", "value": "24.7 ± 0.7", "unit": "kg/m^2"},
      {"measurement": "Safety parameters (physical exams, hematology, chemistry)", "setting": "[4]", "value": "all within normal limits"},
      {"measurement": "side effects", "setting": "[4]", "value": "No side effects were reported"},
      {"measurement": "APO A1", "setting": "[5]; men", "value": "167.4 ± 6.1"},
      {"measurement": "APO B", "setting": "[5]; men", "value": "149.8 ± 8.5"},
      {"measurement": "APO A1", "setting": "[5]; women", "value": "213.7 ± 8.1"},
      {"measurement": "APO B", "setting": "[5]; women", "value": "137.4 ± 5.9"},
      {"measurement": "self-reported libido", "setting": "[6]", "value": "no difference was seen while subjects were on DHEA"},
      {"measurement": "GLUCOSE DISPOSAL RATE", "setting": "[7]; men", "value": "7.64 ± 0.056", "unit": "mg/kg/min"},
      {"measurement": "GLUCOSE EFFECTIVENESS", "setting": "[7]; men", "value": "0.019 ± 0.001", "unit": "min⁻¹"},
      {"measurement": "INSULIN SENSITIVITY", "setting": "[7]; men", "value": "3.69 ± 0.5 × 10^-4 min^-1 uU^-1 ml"},
      {"measurement": "GLUCOSE EFFECTIVENESS", "setting": "[7]; women", "value": "0.024 ± 0.002", "unit": "min⁻¹"},
      {"measurement": "INSULIN SENSITIVITY", "setting": "[7]; women", "value": "2.90 ± 0.4 × 10^-4 min^-1 uU^-1 ml"},
      {"measurement": "IGF-I (change, in words)", "setting": "[8]; men and women", "value": "statistically significant elevation"},
      {"measurement": "free IGF-I (change, in words)", "setting": "[8]; men and women, inferred from IGF-I and IGF BP-I", "value": "overall increase in free IGF-I"},
      {"measurement": "IGF-I increase", "setting": "[8]; men", "value": 10, "unit": "%"},
      {"measurement": "IGF-I increase", "setting": "[8]; women", "value": 12, "unit": "%"},
      {"measurement": "androgens, particularly dihydrotestosterone and estrogens", "setting": "[9]; men", "value": "no changes in any androgens"},
      {"measurement": "androgen levels (testosterone, androstenedione, dihydrotestosterone)", "setting": "[9]; women", "value": "doubling of their androgen levels"},
      {"measurement": "CHOLESTEROL", "setting": "[10]; men", "value": "209.9 ± 9.4"},
      {"measurement": "HDL", "setting": "[10]; men", "value": "44.8 ± 1.7"},
      {"measurement": "LDL", "setting": "[10]; men", "value": "147.5 ± 8.5"},
      {"measurement": "TG", "setting": "[10]; men", "value": "107.7 ± 10.5"},
      {"measurement": "all other lipid or lipoprotein levels (change, in words)", "setting": "[10]; women and men, DHEA 50 mg, 3 months", "value": "unchanged"},
      {"measurement": "HDL levels (change, in words)", "setting": "[10]; women, DHEA 50 mg, 3 months", "value": "Only a small reduction in HDL levels were seen in women"},
      {"measurement": "CHOLESTEROL", "setting": "[10]; women", "value": "218.3 ± 6.9"},
      {"measurement": "HDL", "setting": "[10]; women", "value": "63.4 ± 2.7"},
      {"measurement": "LDL", "setting": "[10]; women", "value": "136.0 ± 4.9"},
      {"measurement": "TG", "setting": "[10]; women", "value": "94.2 ± 7.4"},
      {"measurement": "rate of absorption, sublingual versus oral", "setting": "[11]; 50 mg, men and women", "value": "absorbed most rapidly sublingually"},
      {"measurement": "Tmax", "setting": "[11]; oral 50 mg", "value": "≤ 3", "unit": "h"},
      {"measurement": "Tmax", "setting": "[11]; sublingual 50 mg", "value": "≤ 0.5", "unit": "h"},
      {"measurement": "mood-elevating effect", "setting": "[12]; majority of both men and women, in retrospect", "value": "An impressive mood-elevating effect was noted in retrospect by the majority of both men and women"},
      {"measurement": "responses to question on effect noted during treatment", "setting": "[12]; men and women", "value": "\"sleeping better\" \"better ability to handle stress\" \"more relaxed\", \"easier time falling asleep\", \"more energy\" and \"better moods\""},
      {"measurement": "IGF BP-I (change, in words)", "setting": "[13]; men and women", "value": "decrease"},
      {"measurement": "IGF BP-I decrease", "setting": "[13]; men", "value": 12, "unit": "%"},
      {"measurement": "IGF BP-I decrease", "setting": "[13]; women", "value": 22, "unit": "%"}
    ]}
  ]
}
